Data as given in patent publication US11261498B2, “Methods for diagnosing and treating cancer” (priority 2011, dated 2022).

Legend:
pancreatic cancer = details: phase III, first-line, in combination with gemcitabine; cited from earlier work
[1] = tested on: advanced, treatment-refractory NSCLC; details: phase III, monotherapy, patients with advanced; cited from earlier work
NSCLC = details: phase III, first-line, in combination with standard chemotherapy; cited from earlier work
NSCLC cell lines = assay: Erlotinib sensitivity (IC50, Celltiter-Glo cell viability) of NSCLC cell lines versus ERBB2 methylation; assay type: cell-based; details: in vitro, 72 hrs, 3 nM TGFα, IC50 values only in FIG. 5
Procedure: After 72 hrs, cell viability was measured using the Celltiter-Glo Luminescent Cell Viability Assay (Promega).

Structure (SMILES)	survival (pancreatic cancer)	disease progression [1]	survival [1]	worsening of lung cancer-related symptoms [1]	survival (NSCLC)	correlation of ERBB2 hypomethylation with erlotinib sensitivity (NSCLC cell lines)
C#Cc1cccc(Nc2ncnc3cc(OCCOC)c(OCCOC)cc23)c1 [erlotinib, [6,7-bis(2-methoxyethoxy)-4-quinazolin-4-yl]-(3-ethynylphenyl) amine]	did improve survival	delayed disease progression	significantly prolonged survival	delayed worsening of lung cancer-related symptoms	did not improve survival	strongly correlated
COc1cc2ncnc(Nc3ccc(F)c(Cl)c3)c2cc1OCCCN1CCOCC1 [gefitinib]					did not improve survival	
